Entries after “also recorded” stand apart in the source; their conditions may differ. Peptide text beside a SMILES is read from it. * marks the point of attachment. FITC = O=C1OC2(c3ccc(O)cc3Oc3cc(O)ccc32)c2ccc(NC(=S)*)cc21; Ahx = NCCCCCC(=O)O
What was measured:
P. aeruginosa PA14 [1] = experiment: Imaging flow cytometry of peptide entry; assay type: cell-based, Pseudomonas aeruginosa; settings: 100 or 10 μM, PA14 10^6 cfu/ml, 1 h at 35 °C, trypsin EDTA to remove surface peptide, no ethanol, n = 3
Method: 0.5 ml of 10^6 cfu/ml PA14 cells in 1 mM Na2HPO4, 0.18 mM KH2PO4, 0.27 mM KCl, and 13.7 mM NaCl (pH 7.2) were incubated for 1 h at 35 °C with 10 or 100 μM FITC-N-104 (without, or as a positive control with 70% ethanol) or with the negative control FITC-C-95. Cells were subsequently washed in the same buffer, pelleted, treated with 100 μl of 0.25% trypsin EDTA (Gibco, 25200-056) for 5 min at 35 °C to remove surface-attached peptide, further washed and pelleted, resuspended in 100 μl of the same buffer for fixation with an equal volume of 8% formaldehyde (18,814, Polysciences Inc) and then imaged using an Amnis Imagestream X Mark II imaging flow cytometer. 500 to 1000 counts were analyzed per replicate. To ensure the exclusion of debris and out-of-focus cells, Gradient-RMS (average slope spanning three pixels in an image; 0–100) versus Area (number of pixels in an image reported in square microns; 1–200) of channel one was plotted for each experiment with more than 85% of the data falling within the cells-in-focus gate. The fluorescence intensity values of FITC-positive cells (Intensity-MC, channel 2) were analyzed using the IDEAS version 6.2 program (Amnis, Seattle WA) and plotted as histograms with a bin number of 100. FITC-positive cells were selected based on histograms generated from the positive control sample.

[2] = for solubility in common solvents: water, DMSO, methanol, isopropanol, acetonitrile
Source text: Guided by TMHMM v 2 and DeepTMHMM 1.0.24, we synthesized peptides corresponding to PotH’s predicted outer loops 2 ([…]) and outer loop 3 ([…]). Fifty-three amino acid PotH's OL1 was not synthesized with predicted poor solubility. We also synthesized peptides corresponding to FeoB's predicted outer loop 1 ([…]), outer loop 2 ([…]), outer loop 3 ([…]), and outer loop 5 (ATFAA). […] For these, all amino and carboxy termini were acetylated and amidated, respectively (Supporting Information Reagents Table). All synthesized peptides were aliquoted and stored lyophilized at −80 °C in a dry environment.

P. aeruginosa PA14 [3] = settings: 0-25 μM FITC-N-104 or 2-25 μM Janelia Fluor 549-tagged N-104, PA14 10^6 cfu/ml, 8 h
Method: After overnight incubation at 37 °C, plates were analyzed on a ChemiDoc XRS (Bio-Rad).

P. aeruginosa PA14 [4] = assay type: cell-based, Pseudomonas aeruginosa
Method: Janelia Fluor 549-N-104 and -C-95 (each 25 μg) in 20 μl of M9 minimal salts were incubated with ∼3.75 × 10^9 cfu of pelleted PA14 cells for 1 h at 35 °C, washed four times with filtered 10 mM Na2HPO4, 1.8 mM KH2PO4, 2.7 mM KCl, 137 mM NaCl (pH 7.2), and then treated with 5 μM SYTOX Green to assess membrane integrity. Stained cells (1 μl) were immobilized on coverslip supported 1.5% agarose pads for imaging on a custom-built inverted fluorescence microscope, using 1 W/cm^2 of 561-nm laser light (Genesis MX561 MTM, Coherent) to excite Janelia Fluor 549 Maleimide and 4 mW/cm^2 of 488-nm laser light (Coherent) to excite SYTOX Green. Emitted light collected using an oil immersion objective (PLSAPO, 60×, 1.4 NA) was passed through a filter set (zt440/488/561rpc, Chroma Technology) to block excitation light with separation of Janelia Fluor 549 Maleimide and SYTOX Green emission using a diochroic beam splitter (T5g0lpxr-uf3, Chroma Technology) as collected on separate sCMOS cameras (ORCA-Flash 4.0 V2, Hamamatsu Photonics). Brightfield images were collected to obtain the total number of cells in each field of view.

P. aeruginosa PA14 [5] = experiment: PA14 viability (Alamar Blue, CFU) with exogenous polyamines; assay type: cell-based, Pseudomonas aeruginosa; settings: Alamar Blue and CFU; for protection of PA14 against 5 μM N-104 killing: 5 to 50 μM exogenous polyamine, n = 3
wild-type E. coli K-12 = experiment: Alamar Blue viability assay of wild-type E. coli K-12; assay type: cell-based, Escherichia coli; settings: 100 μM, wild-type E. coli K-12 10^6 cfu/ml, 37 °C, hourly, n = 3
Fe^2+ uptake by PA14 = assay type: cell-based, Pseudomonas aeruginosa; settings: 25 μM peptide, n = 3
Method: Iron depletion was induced in PA14 cells (5 × 10^9 cfu in 10 ml 10 mM Na2HPO4, 1.8 mM KH2PO4, 2.7 mM KCl, 137 mM NaCl (pH 7.2) by treatment with the chelator 1 mM 2,2′-bipyridyl at room temperature for 1 h. After washing twice with 0.9% NaCl, cells were suspended in 1 ml of 1 mM Na2HPO4, 0.18 mM KH2PO4, 0.27 mM KCl, 13.7 mM NaCl for treatment without or with 1, 10, 25, 50 or 100 μM of N-104 (or negative control N-80/C-25 or C-95) for 45 min at 35 °C, incubated at the same temperature for 15 min with 100 μM FeSO4 and 13 mM ascorbic acid, washed twice with 1 mM Na2HPO4, 0.18 mM KH2PO4, 0.27 mM KCl, and 13.7 mM NaCl, and pelleted at 12,000g. The ferrozine assay ([54]) was subsequently employed. Briefly, cells in pellets were lysed with 20 μl of 50 mM NaOH, partially neutralized with 20 μl of 10 mM HCl, subjected to iron release with 20 μl of acidified 0.29 M KMnO4 for 30 min at 80 °C, cooled to room temperature, incubated with 7 μl of 30 mM ferrozine, 1.1 μl of 180 mM neocuproine, 15 μl of 5 M ammonium acetate and 15 μl of 1 M ascorbic acid for 30 min at room temperature and then centrifuged at 21,000g for 10 min. Cellular iron uptake could then be assessed from the supernatant OD565. Single-molecule transport per cell was estimated using a standard curve.

[6] = test system: ^14C-spermidine uptake by PA14; assay type: cell-based, Pseudomonas aeruginosa; settings: 25 μM peptide, n = 6
Method: 100 μl aliquots (0.8 × 10^8 cfu) of PA14 cell cultures in 1 mM Na2HPO4, 0.18 mM KH2PO4, 0.27 mM KCl, 13.7 mM NaCl without or with 1, 10, 25, 50 or 100 μM N-104 (or N-80/C-25 or C-95) for 45 min at 35 °C were incubated with 1 μl of 10 mM [1,4-^14C]putrescine (0.1 mCi/ml; ARC-0245–250, American Radiolabeled Chemicals) or [1,4-^14C]spermidine (0.1 mCi/ml; ARC-3138–50, American Radiolabeled Chemicals) for 15 min at 35 °C. Cell pellets were washed four times with 100 μl of 10 mM Na2HPO4, 1.8 mM KH2PO4, 2.7 mM KCl, 137 mM NaCl (pH 7.2) and then transferred to 4 ml of scintillation fluid (1200.437, PerkinElmer OptiPhase HiSafe 3) for analysis in a Beckman Coulter LS6500. Also assessed was radioactivity from the last wash. Single-molecule transportation per cell was estimated using standard curves for each radiolabeled polyamine.

P. aeruginosa PA14 [7] = experiment: SYTOX Orange PA14 membrane disruption assay; settings: 25 μM peptide, PA14 10^7 cfu/ml, 1 h at 35 °C, 5 μM SYTOX Orange; positive control 70% ethanol

Question: With `CC(C)C[C@H](NC(=O)[C@H](CCCCN)NC(=O)[C@H](CCC(N)=O)NC(=O)[C@H](C)NC(=O)CCCCCNC(=S)Nc1ccc2c(c1)C(=O)OC21c2ccc(O)cc2Oc2cc(O)ccc21)C(=O)N[C@@H](CC(C)C)C(=O)N[C@@H](CCCCN)C(=O)N[C@@H](CCCCN)C(=O)N[C@@H](Cc1ccccc1)C(=O)N[C@@H](CO)C(=O)N[C@@H](CC(C)C)C(=O)N[C@@H](CC(C)C)C(=O)N[C@@H](CCCCN)C(=O)N1CCC[C@H]1C(=O)N[C@@H](Cc1c[nH]c2ccccc12)C(=O)N[C@@H](C)C(=O)O` [FITC-N-104] ({FITC-Ahx}-AQKLLKKFSLLKPWA-OH) as the molecule, how does the “intracellular FITC fluorescence” value (P. aeruginosa PA14 [1]) read?
Answer: The value was “substantial intracellular; also recorded: In contrast to FITC-C-95, substantial intracellular FITC-N-104 fluorescence was apparent at either 100 or 10 µM concentrations”.

Question: For `CC[C@H](C)[C@H](NC(C)=O)C(=O)N[C@@H](CC(N)=O)C(=O)N[C@H](C(=O)NCC(=O)NCC(=O)N[C@@H](C)C(=O)N[C@@H](CC(C)C)C(=O)N[C@@H](CCC(N)=O)C(=O)N1CCC[C@H]1C(N)=O)[C@@H](C)CC` [FeoB OL1 peptide] (Ac-INIGGALQP-NH2), which “solvents in which solubility was identified” value [2] is on record?
Answer: The value was “formic or acetic acid”.

Question: And the “solubility in common solvents” value [2]?
Answer: Its value is “not water, DMSO, methanol, isopropanol or acetonitrile soluble”.

Question: For “JaneliaFluor-CAQKLLKKFSLLKPWA [JanFl-N-104, Cys(N)-N-104 conjugated to Janelia Fluor 549 maleimide]”, which “effect of tagging on N-104 activity in CFU assay” value (P. aeruginosa PA14 [3]) is on record?
Answer: The value was “partially affected”.

Question: And the cellular staining pattern (P. aeruginosa PA14 [4])?
Answer: Its cellular staining pattern is “peripheral internal ring”.

Question: For `NCCCCNCCCN` [spermidine], which “protection of PA14 against 5 μM N-104 killing” value (P. aeruginosa PA14 [5]) is on record?
Answer: The value was “increasingly protected”.

Question: What about the “concentration at which toxic to PA14” value (P. aeruginosa PA14 [5]; 100-2000 µM polyamine) of the same molecule?
Answer: Its value is “exceeding 100 μM”.

Question: With “JaneliaFluor-CEDASSDSTGADPAQEAGTSKPNEE [JanFl-C-95, Cys(N)-C-95 conjugated to Janelia Fluor 549 maleimide, reference compound]” as the molecule, how does the cellular staining pattern (P. aeruginosa PA14 [4]) read?
Answer: The cellular staining pattern was “lacked staining”.

Question: Which “bacterial metabolic activity (Alamar Blue)” value (wild-type E. coli K-12) does the source give for `CC1(C)S[C@@H]2[C@H](NC(=O)[C@H](N)c3ccccc3)C(=O)N2[C@H]1C(=O)O` [ampicillin] here?
Answer: Its value is “inhibitory”.

Question: With `NCCCCN` [Putrescine] as the molecule, how does the “protection of PA14 against 5 μM N-104 killing” value (P. aeruginosa PA14 [5]) read?
Answer: The value was “did not offer the same benefit”.

Question: And the “toxicity to PA14” value (P. aeruginosa PA14 [5]; 100-2000 µM polyamine)?
Answer: The value was “nor was toxic at high concentrations”.

Question: Which results are given for `CC(=O)NCC(=O)N[C@@H](C)C(=O)N[C@@H](Cc1ccccc1)C(=O)N[C@@H](Cc1ccccc1)C(=O)NCC(=O)N[C@@H](CCC(N)=O)C(=O)NCC(=O)NCC(=O)N[C@@H](C)C(N)=O` [FeoB OL3 peptide] (Ac-GAFFGQGGA-NH2)?
Answer: solvents in which solubility was identified [2]: ammonia water and acetic acid; solubility in common solvents [2]: not water, DMSO, methanol, isopropanol or acetonitrile soluble

Question: Which results are given for `CSCC[C@H](NC(=O)CNC(=O)[C@H](CCCCN)NC(=O)CNC(=O)[C@H](C)NC(=O)[C@H](CCCCN)NC(=O)[C@H](C)NC(C)=O)C(=O)N[C@@H](Cc1c[nH]cn1)C(=O)NCC(=O)NCC(=O)N[C@H](C(=O)N1CCC[C@H]1C(=O)NCC(=O)NCC(N)=O)C(C)C` [N-80/C-25, reference compound] (Ac-AKAGKGMHGGVPGG-NH2)?
Answer: effect on exogenous Fe^2+ uptake (Fe^2+ uptake by PA14): partially inhibitory; effect on ^14C-spermidine uptake [6]: also inhibitory; membrane disruption (SYTOX Orange uptake) (P. aeruginosa PA14 [7]): not membrane disruptive

— paper PMC12147183, “Lacritin cleavage-potentiated targeting of iron - respiratory reciprocity promotes bacterial death” (The Journal of Biological Chemistry, 2025)
